Columns and labels:
bedstraw = assay: Test B pre/postemergence bedstraw; assay type: in vivo, Galium aparine
How it was run: (§1)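 Herbicidal effect was estimated by eye on a ten-point control scale after plants spent twelve to sixteen days in a greenhouse following soil or foliar treatment. Foliar sprays targeted plants at one to four leaves; all doses were formulated in a non-phytotoxic solvent with surfactant.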

blackgrass = assay: Test B pre/postemergence blackgrass; assay type: in vivo, Alopecurus myosuroides
How it was run: as §1

surinam grass = assay: Test B pre/postemergence surinam grass; assay type: in vivo, Brachiaria decumbens
How it was run: as §1

cocklebur = assay: Test B pre/postemergence cocklebur; assay type: in vivo, Xanthium strumarium
How it was run: as §1

corn = assay: Test B pre/postemergence corn; assay type: in vivo, Zea mays
How it was run: as §1

giant foxtail = assay: Test B pre/postemergence giant foxtail; assay type: in vivo, Setaria faberii
How it was run: as §1

morningglory = assay: Test B pre/postemergence morningglory; assay type: in vivo, Ipomoea hederacea
How it was run: as §1

pigweed = assay: Test B pre/postemergence pigweed; assay type: in vivo, Amaranthus retroflexus
How it was run: as §1

rape = assay: Test B pre/postemergence rape; assay type: in vivo, Brassica napus
How it was run: as §1

soybean = assay: Test B pre/postemergence soybean; assay type: in vivo, Glycine max
How it was run: as §1

sugar beet = assay: Test B pre/postemergence sugar beet; assay type: in vivo, Beta vulgaris
How it was run: as §1

velvetleaf = assay: Test B pre/postemergence velvetleaf; assay type: in vivo, Abutilon theophrasti
How it was run: as §1

wheat = assay: Test B pre/postemergence wheat; assay type: in vivo, Triticum aestivum
How it was run: as §1

wild oat = assay: Test B pre/postemergence wild oat; assay type: in vivo, Avena fatua
How it was run: as §1

rice = assay: Test B flood test rice; assay type: in vivo, Oryza sativa
How it was run: (§2)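 Flood test on plants grown to the 2-leaf stage; treated plants kept in greenhouse twelve to sixteen days, then visually rated against controls on a 0 (no effect) to 10 (complete control) scale.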

smallflower flatsedge = assay: Test B flood test smallflower flatsedge; assay type: in vivo, Cyperus difformis
How it was run: as §2

[1] = Postemergence, Rate 250 g/ha, scale 0 to 10, 0 no effect, 10 complete control
[2] = Postemergence, Rate 1000 g/ha, scale 0 to 10 (0 no effect, 10 complete control)
[3] = Preemergence, Rate 125 g/ha, scale 0 to 10 (0 no effect, 10 complete control)
[4] = Preemergence, Rate 250 g/ha, scale of 0 to 10 where 0 is no effect and 10 is complete control
[5] = Preemergence, Rate 500 g/ha, scale 0 (no effect) to 10 (complete control)
[6] = Rate 125 g/ha, Postemergence, scale 0 to 10, 0 no effect, 10 complete control
[7] = Rate 500 g/ha, Postemergence, 0 to 10 scale (0 no effect, 10 complete control)
[8] = Rate 1000 g/ha, Preemergence, scale 0 to 10 (0 no effect, 10 complete control)
[9] = Rate 125 g/ha, Postemergence section (flood test species), scale 0 to 10, 0 no effect, 10 complete control
[10] = flood test, listed under Postemergence, Rate 250 g/ha, scale 0 to 10, 0 no effect, 10 complete control

## COc1ccc(-n2c(=O)on(C(=O)N(C3=CCOCC3)C(C)C)c2=O)cc1 [Compound 6]
bedstraw; [1]
  Bedstraw plant response rating: 0
bedstraw; [2]
  Bedstraw plant response rating: 3
bedstraw; [3]
  Plant response rating, Bedstraw: 0
bedstraw; [4]
  Plant response rating, Bedstraw: 0
bedstraw; [5]
  Bedstraw plant response rating: 0
bedstraw; [6]
  Bedstraw plant response rating: 0
bedstraw; [7]
  Bedstraw plant response rating: 0
bedstraw; [8]
  Plant response rating, Bedstraw: 0
blackgrass; [1]
  Blackgrass plant response rating: 7
blackgrass; [2]
  Blackgrass plant response rating: 7
blackgrass; [3]
  Plant response rating, Blackgrass: 0
blackgrass; [4]
  Plant response rating, Blackgrass: 0
blackgrass; [5]
  Blackgrass plant response rating: 2
blackgrass; [6]
  Blackgrass plant response rating: 4
blackgrass; [7]
  Blackgrass plant response rating: 7
blackgrass; [8]
  Plant response rating, Blackgrass: 7
Surinam grass; [1]
  B. signalgrass plant response rating: 2
Surinam grass; [2]
  B. signalgrass plant response rating: 7
Surinam grass; [3]
  Plant response rating, B. signalgrass: 0
Surinam grass; [4]
  Plant response rating, B. signalgrass: 0
Surinam grass; [5]
  B. signalgrass plant response rating: 0
Surinam grass; [6]
  B. signalgrass plant response rating: 0
Surinam grass; [7]
  B. signalgrass plant response rating: 5
Surinam grass; [8]
  Plant response rating, B. signalgrass: 5
cocklebur; [1]
  Cocklebur plant response rating: 0
cocklebur; [2]
  Cocklebur plant response rating: 0
cocklebur; [3]
  Plant response rating, Cocklebur: 0
cocklebur; [4]
  Plant response rating, Cocklebur: 0
cocklebur; [5]
  Cocklebur plant response rating: 0
cocklebur; [6]
  Cocklebur plant response rating: 0
cocklebur; [7]
  Cocklebur plant response rating: 0
cocklebur; [8]
  Plant response rating, Cocklebur: 2
corn; [1]
  Corn plant response rating: 0
corn; [2]
  Corn plant response rating: 4
corn; [3]
  Plant response rating, Corn: 0
corn; [4]
  Plant response rating, Corn: 1
corn; [5]
  Corn plant response rating: 2
corn; [6]
  Corn plant response rating: 0
corn; [7]
  Corn plant response rating: 0
corn; [8]
  Plant response rating, Corn: 5
Giant foxtail; [1]
  Giant foxtail plant response rating: 4
Giant foxtail; [2]
  Giant foxtail plant response rating: 7
Giant foxtail; [3]
  Plant response rating, Giant foxtail: 3
Giant foxtail; [4]
  Plant response rating, Giant foxtail: 4
Giant foxtail; [5]
  Giant foxtail plant response rating: 9
Giant foxtail; [6]
  Giant foxtail plant response rating: 2
Giant foxtail; [7]
  Giant foxtail plant response rating: 5
Giant foxtail; [8]
  Plant response rating, Giant foxtail: 9
morningglory; [1]
  Morningglory plant response rating: 2
morningglory; [2]
  Morningglory plant response rating: 7
morningglory; [3]
  Plant response rating, Morningglory: 0
morningglory; [4]
  Plant response rating, Morningglory: 0
morningglory; [5]
  Morningglory plant response rating: 0
morningglory; [6]
  Morningglory plant response rating: 0
morningglory; [7]
  Morningglory plant response rating: 5
morningglory; [8]
  Plant response rating, Morningglory: 0
pigweed; [1]
  Redroot pigweed plant response rating: 0
pigweed; [2]
  Redroot pigweed plant response rating: 4
pigweed; [3]
  Plant response rating, Redroot pigweed: 5
pigweed; [4]
  Plant response rating, Redroot pigweed: 5
pigweed; [5]
  Redroot pigweed plant response rating: 7
pigweed; [6]
  Redroot pigweed plant response rating: 0
pigweed; [7]
  Redroot pigweed plant response rating: 0
pigweed; [8]
  Plant response rating, Redroot pigweed: 7
rape; [1]
  Rape plant response rating: 0
rape; [2]
  Rape plant response rating: 2
rape; [3]
  Plant response rating, Rape: 0
rape; [4]
  Plant response rating, Rape: 0
rape; [5]
  Rape plant response rating: 0
rape; [6]
  Rape plant response rating: 0
rape; [7]
  Rape plant response rating: 0
rape; [8]
  Plant response rating, Rape: 0
soybean; [1]
  Soybean plant response rating: 3
soybean; [2]
  Soybean plant response rating: 6
soybean; [3]
  Plant response rating, Soybean: 0
soybean; [4]
  Plant response rating, Soybean: 0
soybean; [5]
  Soybean plant response rating: 0
soybean; [6]
  Soybean plant response rating: 3
soybean; [8]
  Plant response rating, Soybean: 0
Sugar beet; [1]
  Sugarbeets plant response rating: 0
Sugar beet; [2]
  Sugarbeets plant response rating: 3
Sugar beet; [3]
  Plant response rating, Sugarbeets: 0
Sugar beet; [4]
  Plant response rating, Sugarbeets: 0
Sugar beet; [5]
  Sugarbeets plant response rating: 0
Sugar beet; [6]
  Sugarbeets plant response rating: 0
Sugar beet; [8]
  Plant response rating, Sugarbeets: 0
velvetleaf; [1]
  Velvetleaf plant response rating: 0
velvetleaf; [2]
  Velvetleaf plant response rating: 1
velvetleaf; [3]
  Plant response rating, Velvetleaf: 0
velvetleaf; [4]
  Plant response rating, Velvetleaf: 2
velvetleaf; [5]
  Velvetleaf plant response rating: 2
velvetleaf; [6]
  Velvetleaf plant response rating: 0
velvetleaf; [8]
  Plant response rating, Velvetleaf: 4
wheat; [1]
  Wheat plant response rating: 0
wheat; [2]
  Wheat plant response rating: 0
wheat; [3]
  Plant response rating, Wheat: 0
wheat; [4]
  Plant response rating, Wheat: 0
wheat; [5]
  Wheat plant response rating: 0
wheat; [6]
  Wheat plant response rating: 0
wheat; [8]
  Plant response rating, Wheat: 3
Wild oat; [1]
  Wild oats plant response rating: 0
Wild oat; [2]
  Wild oats plant response rating: 4
Wild oat; [3]
  Plant response rating, Wild oats: 0
Wild oat; [4]
  Plant response rating, Wild oats: 0
Wild oat; [5]
  Wild oats plant response rating: 3
Wild oat; [6]
  Wild oats plant response rating: 0
Wild oat; [8]
  Plant response rating, Wild oats: 6
rice; [2]
  Rice plant response rating: 3
rice; [9]
  Rice plant response rating: 0
rice; Rate 500 g/ha, Postemergence section of Table B, 0 to 10 scale (0 no effect, 10 complete control)
  Rice plant response rating: 0
rice; [10]
  Rice plant response rating: 0
Smallflower flatsedge; [2]
  S. Flatsedge plant response rating: 3
Smallflower flatsedge; [9]
  S. Flatsedge plant response rating: 0
Smallflower flatsedge; [10]
  S. Flatsedge plant response rating: 0
